≈ marks a conversion by molar mass, not a printed value. Calls of active or inactive are those of the source. No cut-off for these calls is given here.
Columns and labels:
[1] = Metabolic stability in mouse liver microsome assessed as half life; format: ADME; conditions: liver microsomes
[2] = Toxicity in C57BL/6 mouse xenografted with […] cells assessed as body weight loss at 10 mg/kg, ip administered every two days for 20 days; format: organism-based; conditions: in vivo, 480 h, time 20 day
[3] = tested on: CFPAC-1; assay: Induction of apoptosis in human CFPAC-1 cells assessed as late apoptotic cells at 1 uM incubated for 24 hrs by annexin V-FITC/PI staining based flow cytometry (reference value: 3.14 %); format: functional
[4] = tested on: CFPAC-1; assay: Induction of apoptosis in human CFPAC-1 cells assessed as viable cells at 10 uM incubated for 24 hrs by annexin V-FITC/PI staining based flow cytometry (reference value: 93.5 %); format: functional; conditions: read-out: Activity
[5] = tested on: CFPAC-1; assay: Induction of apoptosis in human CFPAC-1 cells assessed as early apoptotic cells at 1 uM incubated for 24 hrs by annexin V-FITC/PI staining based flow cytometry (reference value: 3.04 %); format: functional
[6] = Metabolic stability in human liver microsome assessed as hepatic clearance; format: ADME; conditions: microsomes
[7] = Metabolic stability in human liver microsome assessed as half life; format: ADME; conditions: liver microsomes
[8] = Metabolic stability in mouse liver microsome assessed as hepatic clearance; format: ADME; conditions: microsomes
[9] = tested on: Panc02; assay: Antiproliferative activity against mouse Panc02 cells assessed as inhibition of cell proliferation at 1 uM incubated for 72 hrs by SRB assay relative to control; format: functional
[10] = Antiproliferative activity against human L02 cells assessed as inhibition of cell proliferation incubated for 72 hrs by SRB assay; format: toxicity, cell-based
[11] = tested on: CFPAC-1; assay: Induction of cell cycle arrest in human CFPAC-1 cells assessed as accumulation at G1 phase at 1000 nM incubated for 24 hrs by flow cytometry (reference value: 58.6 %); format: functional
[12] = tested on: CFPAC-1; assay: Induction of apoptosis in human CFPAC-1 cells assessed as early apoptotic cells at 10 uM incubated for 24 hrs by annexin V-FITC/PI staining based flow cytometry (reference value: 3.04 %); format: functional
[13] = Metabolic stability in human liver microsome assessed as intrinsic clearance; format: ADME; conditions: liver microsomes, read-out: CLH
[14] = Antiproliferative activity against human L02 cells assessed as inhibition of cell proliferation at 1 uM incubated for 72 hrs by SRB assay relative to control; format: toxicity, cell-based
[15] = tested on: CFPAC-1; assay: Induction of cell cycle arrest in human CFPAC-1 cells assessed as accumulation at G1 phase at 10 nM incubated for 24 hrs by flow cytometry (reference value: 58.6 %); format: functional
[16] = tested on: CFPAC-1; assay: Inhibition of autophagy at later stage in human CFPAC-1 cells assessed as increase in LC3-II/LC3-I ratio at 1 uM incubated for 24 hrs in presence of chloroquine by Western blot analysis; format: functional, cell-based
[17] = Toxicity in C57BL/6 mouse xenografted with […] cells assessed as drug tolerance at 10 mg/kg, ip administered every two days for 20 days; format: organism-based; conditions: in vivo, 480 h, time 20 day
[18] = tested on: CFPAC-1; assay: Induction of cell cycle arrest in human CFPAC-1 cells assessed as accumulation at S phase at 100 nM incubated for 24 hrs by flow cytometry (reference value: 24.5 %); format: functional
[19] = tested on: Panc02; assay: Antiproliferative activity against mouse Panc02 cells assessed as inhibition of cell proliferation incubated for 72 hrs by SRB assay; format: functional, cell-based; conditions: Panc02, 72 h
[20] = tested on: CFPAC-1; assay: Induction of cell cycle arrest in human CFPAC-1 cells assessed as accumulation at G1 phase at 100 nM incubated for 24 hrs by flow cytometry (reference value: 58.6 %); format: functional
[21] = tested on: CFPAC-1; assay: Induction of cell cycle arrest in human CFPAC-1 cells assessed as accumulation at S phase at 1000 nM incubated for 24 hrs by flow cytometry (reference value: 24.5 %); format: functional
[22] = Metabolic stability in mouse liver microsome assessed as intrinsic clearance; format: ADME; conditions: liver microsomes, read-out: CLH
[23] = tested on: CFPAC-1; assay: Induction of cell cycle arrest in human CFPAC-1 cells assessed as accumulation at G2 phase at 100 nM incubated for 24 hrs by flow cytometry (reference value: 14.5 %); format: functional
[24] = tested on: MIA PaCa-2; assay: Antiproliferative activity against human MIA PaCa-2 cells assessed as inhibition of cell proliferation incubated for 72 hrs by SRB assay; format: functional, cell-based; conditions: MIA PaCa-2, 72 h
[25] = tested on: CFPAC-1; assay: Antiproliferative activity against human CFPAC-1 cells assessed as inhibition of cell proliferation at 1 uM incubated for 72 hrs by SRB assay relative to control; format: functional
[26] = tested on: CFPAC-1; assay: Effect on beclin-1 level in human CFPAC-1 cells at 10 to 1000 nM incubated for 24 hrs by Western blot analysis; format: functional, cell-based; conditions: dose 10-1000 nM
[27] = tested on: CFPAC-1; assay: Induction of apoptosis in human CFPAC-1 cells assessed as necrotic cells at 10 uM incubated for 24 hrs by annexin V-FITC/PI staining based flow cytometry (reference value: 0.37 %); format: functional
[28] = tested on: CFPAC-1; assay: Induction of apoptosis in human CFPAC-1 cells assessed as late apoptotic cells at 10 uM incubated for 24 hrs by annexin V-FITC/PI staining based flow cytometry (reference value: 3.14 %); format: functional
[29] = tested on: PaTu 8988t; assay: Antiproliferative activity against human PaTu 8988t cells assessed as inhibition of cell proliferation incubated for 72 hrs by SRB assay; format: functional, cell-based
[30] = tested on: CFPAC-1; assay: Antiproliferative activity against human CFPAC-1 cells assessed as inhibition of cell proliferation incubated for 72 hrs by SRB assay; format: functional, cell-based; conditions: CFPAC-1, 72 h
[31] = tested on: Panc02; assay: Antitumor activity against […] Panc02 cells xenografted in C57BL/6 mouse assessed as tumor growth inhibition at 10 mg/kg, ip administered every two days for 20 days by electronic caliper method relative to control; format: functional; conditions: Panc02, 480 h, time 20 day, read-out: TGI
[32] = tested on: MIA PaCa-2; assay: Antiproliferative activity against human MIA PaCa-2 cells assessed as inhibition of cell proliferation at 1 uM incubated for 72 hrs by SRB assay relative to control; format: functional
[33] = Aqueous solubility of the compound at 1 to 2 mg measured after 24 hrs by HPLC-MS analysis; format: physicochemical; conditions: aqueous (not further specified), dose 1-2 mg
[34] = tested on: CFPAC-1; assay: Induction of cell cycle arrest in human CFPAC-1 cells assessed as accumulation at G2 phase at 1000 nM incubated for 24 hrs by flow cytometry (reference value: 14.5 %); format: functional
[35] = tested on: CFPAC-1; assay: Induction of cell cycle arrest in human CFPAC-1 cells assessed as accumulation at G2 phase at 10 nM incubated for 24 hrs by flow cytometry (reference value: 14.5 %); format: functional
[36] = tested on: CFPAC-1; assay: Induction of apoptosis in human CFPAC-1 cells assessed as necrotic cells at 1 uM incubated for 24 hrs by annexin V-FITC/PI staining based flow cytometry (reference value: 0.37 %); format: functional
[37] = tested on: CFPAC-1; assay: Induction of cell cycle arrest in human CFPAC-1 cells assessed as accumulation at S phase at 10 nM incubated for 24 hrs by flow cytometry (reference value: 24.5 %); format: functional
[38] = tested on: PaTu 8988t; assay: Antiproliferative activity against human PaTu 8988t cells assessed as inhibition of cell proliferation at 1 uM incubated for 72 hrs by SRB assay relative to control; format: functional
[39] = tested on: CFPAC-1; assay: Induction of apoptosis in human CFPAC-1 cells assessed as viable cells at 1 uM incubated for 24 hrs by annexin V-FITC/PI staining based flow cytometry (reference value: 93.5 %); format: functional; conditions: read-out: Activity

**Q.** Which half-life [1] does the source give for `COc1cc2c(O)c3c(c(-c4ccc5c(c4)OCO5)c2cc1OC)C(=O)OC3` [DIPHYLLIN] here?
**A.** < 5 min

**Q.** And the Activity [2]?
**A.** Non-Toxic

**Q.** What about the Activity [3] of the same compound?
**A.** 7.23%

**Q.** And the viability at 10 µM [4]?
**A.** 87.8%

**Q.** What about the Activity [5] of the same compound?
**A.** 1.99%

**Q.** And the CLH [6]?
**A.** 13.2 mL/min/kg

**Q.** And the half-life [7]?
**A.** 43.8 min

**Q.** What about the CLH [8] of the same compound?
**A.** > 83.2 mL/min/kg

**Q.** What about the inhibition at 1 µM [9] of the same compound?
**A.** 83.3%

**Q.** And the IC50 at 72 h [10]?
**A.** 3320 nM

**Q.** And the Activity [11]?
**A.** 81.9%

**Q.** And the Activity [12]?
**A.** 2.1%

**Q.** And the microsomal CLint [13]?
**A.** 31.6 µL/min/mg

**Q.** What about the inhibition at 72 h, 1 µM [14] of the same compound?
**A.** 17.7%

**Q.** What about the Activity [15] of the same compound?
**A.** 58.9%

**Q.** What about the inhibition [16] of the same compound?
**A.** Active

**Q.** What about the Activity [17] of the same compound?
**A.** Non-Toxic

**Q.** What about the Activity [18] of the same compound?
**A.** 20.4%

**Q.** What about the IC50 [19] of the same compound?
**A.** 61 nM

**Q.** And the Activity [20]?
**A.** 66.7%

**Q.** And the Activity [21]?
**A.** 8.14%

**Q.** What about the microsomal CLint [22] of the same compound?
**A.** > 277 µL/min/mg

**Q.** What about the Activity [23] of the same compound?
**A.** 10.6%

**Q.** What about the IC50 [24] of the same compound?
**A.** 271 nM

**Q.** What about the inhibition at 1 µM [25] of the same compound?
**A.** 75.4%

**Q.** And the Activity [26]?
**A.** inactive

**Q.** What about the Activity [27] of the same compound?
**A.** 0.58%

**Q.** And the Activity [28]?
**A.** 9.53%

**Q.** What about the IC50 [29] of the same compound?
**A.** 102 nM

**Q.** What about the IC50 [30] of the same compound?
**A.** 208 nM

**Q.** What about the inhibition in vivo at 10 mg/kg [31] of the same compound?
**A.** 22.6%

**Q.** And the inhibition at 1 µM [32]?
**A.** 70.1%

**Q.** What about the solubility at 24 h [33] of the same compound?
**A.** 0.021 µg/mL (≈ 0.0552 µM)

**Q.** What about the Activity [34] of the same compound?
**A.** 7.81%

**Q.** What about the Activity [35] of the same compound?
**A.** 10.1%

**Q.** And the Activity [36]?
**A.** 0.86%

**Q.** And the Activity [37]?
**A.** 28.7%

**Q.** What about the inhibition at 1 µM [38] of the same compound?
**A.** 77.5%

**Q.** What about the viability at 1 µM [39] of the same compound?
**A.** 89.9%

Reference: ChEMBL document CHEMBL5352426, “Synthesis and anti-tumor activity of nitrogen-containing derivatives of the natural product diphyllin” (Eur J Med Chem, 2022)
